Measured values as given in ChEMBL document CHEMBL1136844, “Discovery of novel small molecule cell type-specific enhancers of NF-kappaB nuclear translocation” (Bioorg Med Chem Lett, 2009).
Active and inactive are the calls of the source. The calls are words filed in the database; no cut-off is given here.

Columns and labels:
[1] = target: Transcription factor p65 (Homo sapiens) (UniProt Q04206); assay: Potentiation of TNF-alpha-induced NF-kappaB p65 nuclear translocation in HUVEC cells by immunostaining; type: cell-based
Sequence of Transcription factor p65 (Homo sapiens) (Q04206 whole entry): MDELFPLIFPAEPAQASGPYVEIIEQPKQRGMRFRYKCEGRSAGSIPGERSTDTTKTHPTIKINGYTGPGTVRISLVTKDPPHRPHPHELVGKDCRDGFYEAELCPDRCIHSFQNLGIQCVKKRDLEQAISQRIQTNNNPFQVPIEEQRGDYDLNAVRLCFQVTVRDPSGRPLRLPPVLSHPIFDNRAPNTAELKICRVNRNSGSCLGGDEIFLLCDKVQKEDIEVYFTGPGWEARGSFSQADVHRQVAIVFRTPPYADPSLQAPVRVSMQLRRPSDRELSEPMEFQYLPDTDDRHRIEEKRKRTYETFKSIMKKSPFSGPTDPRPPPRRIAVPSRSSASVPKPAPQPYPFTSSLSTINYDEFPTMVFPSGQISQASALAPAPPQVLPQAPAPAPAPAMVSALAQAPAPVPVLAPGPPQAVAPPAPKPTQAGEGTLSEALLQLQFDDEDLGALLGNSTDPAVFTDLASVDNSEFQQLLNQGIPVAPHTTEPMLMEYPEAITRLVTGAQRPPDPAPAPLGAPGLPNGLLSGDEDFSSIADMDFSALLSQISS

[2] = target: Transcription factor p65 (Homo sapiens) (UniProt Q04206); assay: Induction of NF-kappaB p65 nuclear translocation in HUVEC cells by immunostaining; type: cell-based

| Compound | Activity [1] | Activity [2] |
| --- | --- | --- |
| COc1ccc2nc(-c3cccs3)nc(NNS(=O)(=O)c3ccc(C)cc3)c2c1 | inactive | inactive |
| COc1cccc2nc(-c3cccs3)nc(NN3C(=O)CC(C)C3=O)c12 (configuration not stated) | inactive | inactive |
| COc1ccc2nc(-c3cccs3)nc(N3CCOCC3)c2c1 | inactive | inactive |
| COc1ccc2nc(-c3cccs3)nc(NCc3ccccc3Cl)c2c1 | inactive | inactive |
| COc1ccc2nc(-c3cccs3)nc(NCCN3CCOCC3)c2c1 | inactive | inactive |
| COc1ccc(CCNc2nc(-c3cccs3)nc3ccc(OC)cc23)cc1 | inactive | inactive |
